# Laboratory results published in patent US9211310B2, “Use of a Chinese medicine composition in preparing medicaments for treating secondary prevention of myocardial infarction” (TASLY PHARMACEUTICAL GROUP CO., LTD, priority 2010, dated 2015).
# System: patients after acute myocardial infarction
# Assay: TCM symptom score, total and single (chest pain, chest tightness, short breath, fatigue, palpitation, spontaneous perspiration, pale complexion), same clinical trial
# Type: in vivo, human
# Parameters: total score of TCM symptom, Mean / total score of TCM symptom, Min / total score of TCM symptom, Max / total score of TCM symptom, Md / change of total score of TCM symptom, Mean / change of total score of TCM symptom, Max / change of total score of TCM symptom, Md: scale not given here
# Settings: FAS
# Excerpt: 3508 patients who were in accordance with the diagnostic standards of AMI for 28 days to 2 years and differentiated as Qi deficiency and blood stagnation syndrome by TCM were studied. 0.5 g Chinese medicine composition prepared by the method of EXAMPLE 1 (Coded as QSYQ) was administrated half an hour after meal, 3 times per day.
# They included the overall survival time, angina pectoris score, TCM symptom score and life quality score, where angina pectoris score, TCM symptom score and life quality score were evaluated at randomization, in 1st, 3rd, 6th, 9th, 12th month after treatment and 18th month after follow-up.
# The analysis method referred to the angina pectoris score.
# [1] = 3 months after treatment-baseline
# [2] = 6 months after treatment-baseline
structure (smiles),measurement,setting,value
"CC(=O)Oc1ccccc1C(=O)O [Control group, aspirine]","total score of TCM symptom, Md",3 months after treatment,10.00
same,"total score of TCM symptom, Mean",3 months after treatment,10.90
same,"total score of TCM symptom, Min",3 months after treatment,0.00
same,"change of fatigue 0, % of patients",[1],(64.74%)
same,"change of fatigue 0, number of patients",[1],1107
same,"change of fatigue 2, % of patients",[1],(24.56%)
same,"change of fatigue 2, number of patients",[1],420
same,"change of fatigue 4, % of patients",[1],(4.09%)
same,"change of fatigue 4, number of patients",[1],70
same,"change of fatigue 6, % of patients",[1],(0.94%)
same,"change of fatigue 6, number of patients",[1],16
same,"change of fatigue −2, % of patients",[1],(5.03%)
same,"change of fatigue −2, number of patients",[1],86
same,"change of fatigue −4, % of patients",[1],(0.53%)
same,"change of fatigue −4, number of patients",[1],9
same,"change of fatigue −6, % of patients",[1],(0.12%)
same,"change of fatigue −6, number of patients",[1],2
same,"change of pale complexion 0, number of patients",[1],1387
same,"change of pale complexion 0, percent of patients",[1],(81.21%)
same,"change of pale complexion 1, number of patients",[1],259
same,"change of pale complexion 1, percent of patients",[1],(15.16%)
same,"change of pale complexion −1, number of patients",[1],62
same,"change of pale complexion −1, percent of patients",[1],(3.63%)
same,"change of palpitation 0, number of patients",[1],1125
same,"change of palpitation 0, percent of patients",[1],(65.79%)
same,"change of palpitation 1, number of patients",[1],415
same,"change of palpitation 1, percent of patients",[1],(24.27%)
same,"change of palpitation 2, number of patients",[1],43
same,"change of palpitation 2, percent of patients",[1],(2.51%)
same,"change of palpitation 3, number of patients",[1],6
same,"change of palpitation 3, percent of patients",[1],(0.35%)
same,"change of palpitation −1, percent of patients",[1],(6.96%)
same,"change of palpitation −2, number of patients",[1],2
same,"change of palpitation −2, percent of patients",[1],(0.12%)
same,"change of palpitation −3, number of patients",[1],0
same,"change of palpitation −3, percent of patients",[1],(0.00%)
same,"change of short breath 0, % of patients",[1],(71.29%)
same,"change of short breath 0, number of patients",[1],1219
same,"change of short breath 2, % of patients",[1],(20.47%)
same,"change of short breath 2, number of patients",[1],350
same,"change of short breath 4, % of patients",[1],(2.16%)
same,"change of short breath 4, number of patients",[1],37
same,"change of short breath 6, % of patients",[1],(0.53%)
same,"change of short breath 6, number of patients",[1],9
same,"change of short breath −2, % of patients",[1],(5.44%)
same,"change of short breath −2, number of patients",[1],93
same,"change of short breath −4, % of patients",[1],(0.12%)
same,"change of short breath −4, number of patients",[1],2
same,"change of short breath −6, % of patients",[1],(0.00%)
same,"change of short breath −6, number of patients",[1],0
same,"change of spontaneous perspiration 0, number of patients",[1],1083
same,"change of spontaneous perspiration 0, percent of patients",[1],(63.37%)
same,"change of spontaneous perspiration 1, number of patients",[1],392
same,"change of spontaneous perspiration 1, percent of patients",[1],(22.94%)
same,"change of spontaneous perspiration 2, number of patients",[1],76
same,"change of spontaneous perspiration 2, percent of patients",[1],(4.45%)
same,"change of spontaneous perspiration 3, number of patients",[1],20
same,"change of spontaneous perspiration 3, percent of patients",[1],(1.17%)
same,"change of spontaneous perspiration −1, percent of patients",[1],(7.08%)
same,"change of spontaneous perspiration −2, number of patients",[1],15
same,"change of spontaneous perspiration −2, percent of patients",[1],(0.88%)
same,"change of spontaneous perspiration −3, number of patients",[1],2
same,"change of spontaneous perspiration −3, percent of patients",[1],(0.12%)
same,"distribution of total score of TCM symptom: Medium, number of patients",6 months after treatment,418
same,"distribution of total score of TCM symptom: Medium, percentage of patients",6 months after treatment,(26.79%)
same,"distribution of total score of TCM symptom: Mild, number of patients",6 months after treatment,1133
same,"distribution of total score of TCM symptom: Mild, percentage of patients",6 months after treatment,(72.63%)
same,"distribution of total score of TCM symptom: Severe, number of patients",6 months after treatment,9
same,"distribution of total score of TCM symptom: Severe, percentage of patients",6 months after treatment,(0.58%)
same,"fatigue score 0, % of patients",6 months after treatment,(30.27%)
same,"fatigue score 0, number of patients",6 months after treatment,520
same,"fatigue score 2, % of patients",6 months after treatment,(61.00%)
same,"fatigue score 2, number of patients",6 months after treatment,1048
same,"fatigue score 4, % of patients",6 months after treatment,(7.86%)
same,"fatigue score 4, number of patients",6 months after treatment,135
same,"fatigue score 6, % of patients",6 months after treatment,(0.87%)
same,"fatigue score 6, number of patients",6 months after treatment,15
same,"pale complexion score 0, number of patients",6 months after treatment,871
same,"pale complexion score 0, percent of patients",6 months after treatment,(50.70%)
same,"pale complexion score 1, number of patients",6 months after treatment,657
same,"pale complexion score 1, percent of patients",6 months after treatment,(38.24%)
same,"pale complexion score 2, number of patients",6 months after treatment,179
same,"pale complexion score 2, percent of patients",6 months after treatment,(10.42%)
same,"pale complexion score 3, number of patients",6 months after treatment,11
same,"pale complexion score 3, percent of patients",6 months after treatment,(0.64%)
same,"palpitation score 0, number of patients",6 months after treatment,538
same,"palpitation score 0, percent of patients",6 months after treatment,(31.32%)
same,"palpitation score 2, number of patients",6 months after treatment,906
same,"palpitation score 2, percent of patients",6 months after treatment,(52.74%)
same,"palpitation score 4, number of patients",6 months after treatment,246
same,"palpitation score 4, percent of patients",6 months after treatment,(14.32%)
same,"palpitation score 6, number of patients",6 months after treatment,28
same,"palpitation score 6, percent of patients",6 months after treatment,(1.63%)
same,"short breath score 0, % of patients",6 months after treatment,(25.03%)
same,"short breath score 0, number of patients",6 months after treatment,430
same,"short breath score 2, % of patients",6 months after treatment,(0.06%)
same,"short breath score 2, number of patients",6 months after treatment,1
same,"short breath score 3, % of patients",6 months after treatment,(58.09%)
same,"short breath score 3, number of patients",6 months after treatment,998
same,"short breath score 6, % of patients",6 months after treatment,(16.30%)
same,"short breath score 6, number of patients",6 months after treatment,280
same,"short breath score 9, % of patients",6 months after treatment,(0.52%)
same,"short breath score 9, number of patients",6 months after treatment,9
same,"spontaneous perspiration score 0, number of patients",6 months after treatment,728
same,"spontaneous perspiration score 0, percent of patients",6 months after treatment,(42.37%)
same,"spontaneous perspiration score 1, number of patients",6 months after treatment,833
same,"spontaneous perspiration score 1, percent of patients",6 months after treatment,(48.49%)
same,"spontaneous perspiration score 2, number of patients",6 months after treatment,144
same,"spontaneous perspiration score 2, percent of patients",6 months after treatment,(8.38%)
same,"spontaneous perspiration score 3, number of patients",6 months after treatment,13
same,"spontaneous perspiration score 3, percent of patients",6 months after treatment,(0.76%)
same,"total score of TCM symptom, Max",6 months after treatment,34.00
same,"total score of TCM symptom, Md",6 months after treatment,9.00
same,"total score of TCM symptom, Mean",6 months after treatment,10.04
same,"total score of TCM symptom, Min",6 months after treatment,0.00
same,"change of fatigue 0, % of patients",[2],(56.96%)
same,"change of fatigue 0, number of patients",[2],974
same,"change of fatigue 2, % of patients",[2],(28.54%)
same,"change of fatigue 2, number of patients",[2],488
same,"change of fatigue 4, % of patients",[2],(6.43%)
same,"change of fatigue 4, number of patients",[2],110
same,"change of fatigue 6, % of patients",[2],(1.05%)
same,"change of fatigue 6, number of patients",[2],18
same,"change of fatigue −2, % of patients",[2],(6.32%)
